Patent US7166634B2, “Bis-indole pyrroles useful as antimicrobials agents” (Nereus Pharmaceuticals, Inc., priority 2004, dated 2007)
Values after ≈ are worked out from the molar mass of the structure shown.

What was measured:
Assay in all cases: MIC, broth microdilution (NCCLS M7-A5)
Format in all cases: cell-based
[1] = test system: S. epidermidis - ATCC 700578; conditions: S. epidermidis - ATCC 700578; Table 3
Description: (§1) Minimum inhibitory concentrations (MICs) are determined according to the National Committee for Clinical Laboratory Standards (NCCLS) susceptibility test guideline M7-A5 (Ferraro, M. 2001 Methods for Dilution Antimicrobial Susceptibility Tests for Bacteria that Grow Aerobically; Approved Standard (NCCLS). National Committee for Clinical Laboratory Standards (NCCLS), Villanova) to quantify the antimicrobial activity of the compounds of the present embodiment against various pathogenic bacteria. Susceptibility testing is performed by broth microdilution in accordance with National Committee for Clinical Laboratory Standards (NCCLS) guidelines. This procedure entails combining the test compounds with a standardized number of cells, incubating at the temperature and amount of time appropriate for each particular organism, and visually scoring the concentration at which no growth was apparent in the test wells. The panel includes both drug sensitive and drug resistant isolates of both gram-positive and gram-negative bacteria, including: S. aureus (both MSSA and MRSA), S. pneumoniae (wild type and penicillin-resistant), vancomycin-sensitive E. faecalis, vancomycin-resistant E. faecium, E. coli, H. influenzae and P. aeruginosa.
(§2) Susceptibility testing was performed by broth microdilution in accordance with National Committee for Clinical Laboratory Standards (NCCLS) guidelines. Antimicrobial data for compounds of Formulae II, III, IV, VI, VII, VIII, IX, XII, XIII, XIV, XV′, XV, XVI, XVII, XVIII, XXI′, XXII, XXIII, XXIV, and XXV are shown in Tables 3, 4 and 5.

[2] = test system: S. epidermidis - ATCC 700582; conditions: S. epidermidis - ATCC 700582; Table 3
Description: as §1, §2

[3] = test system: E. coli - ATCC 25922; conditions: Table 3
Description: as §1, §2

[4] = test system: E. coli - imp; conditions: E. coli - imp; Table 3
Description: as §1, §2

[5] = test system: E. faecium - Van^r (VRE 700221); conditions: E. faecium - Van^r; Table 3
Description: as §1, §2

[6] = test system: H. influenzae - ATCC 49247; conditions: H. influenzae - ATCC 49247; Table 3
Description: as §1, §2

[7] = test system: H. influenzae - ATCC 49766; conditions: H. influenzae - ATCC 49766; Table 3
Description: as §1, §2

[8] = test system: S. aureus - MRSA (43300); conditions: S. aureus - MRSA; Table 3
Description: as §1, §2

[9] = test system: S. aureus - MSSA (29213); conditions: S. aureus - MSSA; Table 3
Description: as §1, §2

[10] = test system: S. pneumoniae - penicillin resistant (51915); conditions: S. pneumoniae - penicillin resistant; Table 3
Description: as §1, §2

[11] = test system: S. pneumoniae - penicillin sensitive (49619); conditions: S. pneumoniae - penicillin sensitive; Table 3
Description: as §1, §2

[12] = test system: E. faecalis - Van^s (VSE 29212); conditions: E. faecalis - Van^s; Table 3
Description: as §1, §2

COC(=O)c1[nH]c(C(=O)OC)c(-c2c[nH]c3ccc(Cl)cc23)c1-c1c[nH]c2ccc(Cl)cc12 [VI]
MIC [1]: 4 µg/mL (≈ 8.29 µM) | MIC [2]: 4 µg/mL (≈ 8.29 µM) | MIC [3]: >32 µg/mL | MIC [4]: >32 µg/mL | MIC [5]: 8 µg/mL (≈ 16.6 µM) | MIC [6]: 5 µg/mL (≈ 10.4 µM) | MIC [7]: 8 µg/mL (≈ 16.6 µM) | MIC [8]: 3 µg/mL (≈ 6.22 µM) | MIC [9]: 3 µg/mL (≈ 6.22 µM) | MIC [10]: 20 µg/mL (≈ 41.5 µM) | MIC [11]: 24 µg/mL (≈ 49.8 µM) | MIC [12]: 8 µg/mL (≈ 16.6 µM)
